Marks after values point to notes of the source that are not given here.

For one assay, the system named is MDA-MB-231 tumors. The experiment in a line: MDA-MB-231 mammary tumors implanted SC in nude mice, tumor growth. The format is in vivo. The note with it: for Median tumor volume, day 15: Day 15 post-implant (treatment start); for Median tumor volume, day 15 / Days Delay in tumor growth: MDA-MB-231, nude mice; for Median tumor volume, day 19: Day 19 post-implant; for Median tumor volume, day 22: Day 22 post-implant; for Median tumor volume, day 26: Day 26 post-implant; for Median tumor volume, day 29: Day 29 post-implant; for Median tumor volume, day 33: Day 33 post-implant; for Days Delay in tumor growth: endpoint of 3× doubling of tumor weight; for Tumor growth, difference from control: statistical comparison with the control group. As for the experimental part:
MDA-MB-231 tumors were implanted in nude mice. Ten animals (NCr-nu) were allocated to each group. The tumors were implanted SC as trocar fragments and allowed to increase in size to approximately 170 mg before treatment began on Day 15 post-implant. The treatment regimen for [N109D]-IGFBP-3 was 4.0 mg/kg/dose, daily for 21 days, SC beginning on Day 15. The treatment regimen for Taxol was 5.0 mg/kg/day, daily for five days, IV. The treatment regimen for Cisplatin was 4.0 mg/kg/dose, administered every fourth day for three treatments, IP. Treatment regimens for TAXOL® and Cisplatin began on Day 18. Tumor measurements were performed daily.

The next assay relates to tumor growth. The experiment in a line: Systemic IGFBP-3 alone in animal models of cancer, tumor growth. It counts as in vivo. The note with it: 4 mg/kg for 21 days, more than one animal model of cancer. As for the experimental part: This was surprising because it was believed that IGFBP-3 alone could cause the death of some tumor cells. The dose chosen is likely to be close to the maximum practicable dose that would be systemically delivered in a human clinical setting. The maximum practicable dose is determined by the cost, pharmacokinetics, toxicology, solubility of the formulation, route of administration, and other practical considerations.

Assay [1] has as its system 16C mammary adenocarcinoma. Kind of assay: 16C mammary adenocarcinoma SC tumor implants in C3H mice, tumor growth. The format is in vivo. The conditions noted are these: for Days Delay in tumor growth: endpoint of 1500 mg tumor weight, 16C tumors, C3H mice. On the procedure: Female C3H mice (8-11 animals per group) received early SC implants of 16C mammary adenocarcinoma tumor fragments (near 100% “take”) and were treated with vehicle, [N109D]-IGFBP-3 (4 mg/kg/day SC ×21), 5-FU (10 mg/kg/day IP ×5), adriamycin (2 mg/kg/dose IV on day 1 and day 8 post-implant), or the indicated combinations. Tumors were measured twice weekly. Animals were sacrificed at Day 21. The doses of doxorubicin and 5-fluorouracil used in this experiment were chosen to be marginally effective, based on previous experience with these chemical agents in this model. […] The results are shown graphically in FIG. 2.

For a further assay, the system named is RXR-alpha. Kind of assay: RXR-alpha levels in 16C tumor tissue (gene array). The format is in vivo, mouse. The conditions noted are these: 16C tumors from treated animals. On the procedure: (§1) In order to gain further insights into the mechanism of action of exogenously added IGFBP-3 in these mouse models, tumor tissues from the groups treated with vehicle, doxorubicin, or doxorubicin plus IGFBP-3, were further analyzed using gene array technology. RNA was extracted from tumor tissue. cDNA was prepared, labelled and used to probe Atlas 1.2k-I mouse gene arrays (Clontech Laboratories Inc., Palo Alto, Calif.). These arrays contain 1,176 mouse gene sequences.

Assay [2] deals with 1,176 mouse gene sequences. The experiment in a line: Gene array analysis (Atlas 1.2k-I mouse gene arrays) of 16C tumor tissue. The format is in vivo. On the procedure:
as §1

“IGFBP-3: insulin-like growth factor binding protein 3; in Table 2 the group received [N109D]-IGFBP-3”: in the assay on MDA-MB-231 tumors, the “Median tumor volume, day 15” value was 161 ± 35 milligrams; the “Median tumor volume, day 19” value is 367.5 ± 244 milligrams; the “Median tumor volume, day 22” value amounted to 565 ± 510 milligrams; the “Median tumor volume, day 26” value was found to be 818.5 ± 750 milligrams. Moreover, in the assay with MDA-MB-231 tumors, the “Median tumor volume, day 29” value was determined as 1089 ± 851 milligrams and the “Median tumor volume, day 33” value was 1936 ± 1825 milligrams. In the assay with tumor growth, the “Slowing of tumor growth by IGFBP-3 alone” value was “completely ineffective”.
In the case of `CC(=O)O[C@H]1C(=O)[C@@]2(C)[C@H]([C@H](OC(=O)c3ccccc3)[C@]3(O)C[C@H](OC(=O)[C@H](O)[C@@H](NC(=O)c4ccccc4)c4ccccc4)C(C)=C1C3(C)C)[C@]1(OC(C)=O)CO[C@@H]1C[C@@H]2O` [TAXOL ®, paclitaxel], in the assay on MDA-MB-231 tumors, the “Median tumor volume, day 15” value came out at 153 ± 32 milligrams; the “Median tumor volume, day 19” value was found to be 327 ± 131 milligrams; the “Median tumor volume, day 22” value is 384 ± 337 milligrams; the “Median tumor volume, day 26” value came to 512 ± 489 milligrams. In addition, in the assay with MDA-MB-231 tumors, the “Median tumor volume, day 29” value was determined as 648 ± 538 milligrams; the “Median tumor volume, day 33” value amounted to 900 ± 1067 milligrams; the “Days Delay in tumor growth” value is “+3.5 days”; the “Tumor growth, difference from control” value was “significantly different from control”.
Turning to `COc1cccc2c1C(=O)c1c(O)c3c(c(O)c1C2=O)C[C@@](O)(C(=O)CO)C[C@@H]3O[C@H]1C[C@H](N)[C@H](O)[C@H](C)O1` [ADRIAMYCIN ®, doxorubicin], the “Days Delay in tumor growth” value in assay [1] is on record as “+2.5* days”. In addition, the “Inhibition of RXR-alpha levels in tumors” value with RXR-alpha is recorded as “not”. In addition, the “Number of down-regulated genes” value in assay [2] (among the differentially expressed genes) is listed as 16 genes. For the same compound, in assay [2] (of 1,176 gene sequences), the “Number of differentially expressed genes” value is reported as 26 genes and the “Share of genes differentially expressed” value is recorded as 2%.
With `O=c1[nH]cc(F)c(=O)[nH]1` [5-FLUOROURACIL, 5-fluorouracil], in assay [1], the “Days Delay in tumor growth” value is listed as “+1.9 days”.
Take `N.N.[Cl][Pt][Cl]` [CISPLATIN, cisplatin]: in the assay on MDA-MB-231 tumors, the “Median tumor volume, day 15” value is reported as 171 ± 33 milligrams; the “Median tumor volume, day 19” value is recorded as 368 ± 124 milligrams; the “Median tumor volume, day 22” value is given as 446 ± 175 milligrams; the “Median tumor volume, day 26” value is reported as 563 ± 214 milligrams. Also, in the assay on MDA-MB-231 tumors, the “Median tumor volume, day 29” value stood at 675 ± 220 milligrams; the “Median tumor volume, day 33” value is recorded as 922 ± 299 milligrams; the “Tumor growth, difference from control” value is on record as “significantly different from control”.
For “[N109D]-IGFBP-3: derivative of IGFBP-3 that has an amino acid sequence alteration at position 109 of the mature sequence”, the “Effect on tumor growth on its own” value in assay [1] (4 mg/kg/day SC ×21) is listed as “no measurable effects”. Further, the “Potentiation of the effects of co-administered doxorubicin and 5-fluorouracil” value in assay [1] (4 mg/kg/day SC ×21 with marginally effective doses of the agents) is given as “significantly (p<0.01) potentiated the effects of both agents”. Further, the “Days Delay in tumor growth” value in assay [1] is -0.2 days; with MDA-MB-231 tumors it was -2.2 days. Besides, the “Tumor growth, difference from control” value in the assay with MDA-MB-231 tumors was “not significantly different from control”.

The values are drawn from patent US7371813B2, “Method for use of IGF-binding protein for selective sensitization of target cells in vivo” (Bioexpertise LLC, priority 2000, dated 2008).
